Measurements published in patent publication US11559528B2, “BACE1 inhibition for the treatment of cancer” (The Cleveland Clinic Foundation, priority 2019, dated 2023).

Assays:
STAT3 (pSTAT3-Y705) = experiment: Immunoblot of STAT3 activating phosphorylation in U937-derived M2 macrophages; format: cell-based, human; conditions: MK-8931 50 μg/mL three days
Text: FIG. 7, panels A-G. BACE1 Maintains M2 Macrophages through STAT3 Activation (A) Immunoblot analyses of STAT3 and STAT6 activation (pSTAT3-Y705 and pSTAT6-Y641) in U937-derived M2 macrophages affected by BACE1 knockdown. […] (B) Immunoblot analysis of STAT3 and STAT6 activation (pSTAT3-Y705 and pSTAT6-Y641) in U937-derived M2 macrophages in response to MK-8931 treatment. […] (C-E) In vivo analysis of STAT3 activating phosphorylation in TAMs by double immunofluorescent staining of IBA1 with pSTAT3-Y705 in GBM xenografts treated with MK-8931 or vehicle control. GBM xenografts were established by implantation of glioma stem cells (T4121) through intracranial injection. […] Representative images (C) showing the fluorescent staining of IBA1 (in green) and the pSTAT3 (in red) in MK-8931-treated or control GBM xenografts. […] Scale bar represents 3 μM. Ctl: Control. MK: MK-8931. […] Ectopic expression of STAT3-C attenuated the M2 to M1 switch caused by BACE1 knockdown.

H1002 lung cancer cells = experiment: Subcutaneous lung cancer xenografts (H1002); format: in vivo, mouse; conditions: 50 mg/kg once daily oral gavage, from two weeks after inoculation; p<0.01
Procedure: (A) Effects of BACE1 inhibitors on lung cancer cell proliferation. H1002 and H146 lung cancer cells were treated with the indicated concentrations of the BACE1 inhibitor AZD3293, MK-8931, AZD3839, or PF-06751979 (PF) for 72 hours. Cell viability was assessed by cell titer assay (n=3). (B-D) A preclinical trial of MK-8931 for lung cancer treatment in xenograft models. H1002 lung cancer cells (5×106) were transplanted into mouse right flank through subcutaneous injection to establish subcutaneous lung cancer xenografts. […] Tumors dissected from mice of each group were photographed (C) and weighed (D). […] Data are shown as mean SEM. p **<0.01, Student's t-test.

## CN1C(N)=N[C@](C)(c2cc(NC(=O)c3ccc(F)cn3)ccc2F)CS1(=O)=O [MK-8931]
STAT3 (pSTAT3-Y705)
  activating phosphorylation of STAT3 (pSTAT3-Y705): significantly down-regulated
H1002 lung cancer cells
  tumor growth (tumor weight): markedly inhibited lung tumor growth
